The source of these data is US7482351B2, “4-pyrimidineamine compounds and their uses as anti-proliferative agents” (Rigel Pharmaceuticals, Inc., priority 2004, dated 2009).

Format in all cases: cell-based
In assay [1] the test system is A549 (lung carcinoma) cells. The assay is described as follows: in vitro inhibition of A549 cells. As for the experimental part:
(§1) Various exemplary 5-fluoro-4-pyrmidineamine compounds (illustrated in TABLE 1, infra) were synthesized as described herein and tested for their ability to inhibit A549 (lung carcinoma), DLD-1 (colorectal adenocarcinoma), H1299 (non small cell lung carcinoma), HCT116 (colorectal carcinoma), HELA (cervical adenocarcinoma) and/or U2OS (bone osterosarcoma) cells in vitro. […] A blank indicates the particular compound was […].

For assay [2], the system named is H1299 (non small cell lung carcinoma) cells. In words: in vitro inhibition of H1299 cells. On the procedure:
as §1

In assay [3] the test system is DLD-1 (colorectal adenocarcinoma) cells. In words: in vitro inhibition of DLD-1 cells. The settings on record: DLD-1 (colorectal adenocarcinoma) cells in vitro. As for the experimental part:
as §1

In assay [4] the test system is HELA (cervical adenocarcinoma) cells. The assay is described as follows: in vitro inhibition of HELA cells. On the procedure:
as §1

Assay [5] relates to HCT116 (colorectal carcinoma) cells. In words: in vitro inhibition of HCT116 cells. On the procedure: as §1
Assay [6] deals with U2OS (bone osterosarcoma) cells. In words: in vitro inhibition of U2OS cells. As for the experimental part:
as §1

Another assay relates to SKMEL28 (human melanoma). In words: additional cell line SKMEL28. On the procedure: (§2) Compound 1 was tested against the following additional cell lines: ACHN (renal cell adenocarcimona), JAR (placental choriocarcinoma), MCF7 (estrogen-dependent breast adenocarcinoma), MDA-MB-231 (estrogen independent breast adenocarcinoma), SKMEL28 (human melanoma) and SKMEL5 (human melanoma). In all cases, the IC50 was less than 1 μM.

The next assay deals with SKMEL5 (human melanoma). In words: additional cell line SKMEL5. On the procedure: as §2
In assay [7] the test system is MCF7 (estrogen-dependent breast adenocarcinoma). The assay is described as follows: additional cell line MCF7. On the procedure:
as §2

Assay [8] relates to JAR (placental choriocarcinoma). The assay is described as follows: additional cell line JAR. On the procedure: as §2
Assay [9] relates to ACHN (renal cell adenocarcimona). The assay is described as follows: additional cell line ACHN. As for the experimental part:
as §2

In assay [10] the test system is MDA-MB-231 (estrogen independent breast adenocarcinoma). In words: additional cell line MDA-MB-231. The following applies: MDA-MB-231 cell line. As for the experimental part:
as §2

Usually IC50 stands for the midpoint of a concentration-inhibition curve. Low readings indicate greater potency in that assay, high ones weaker potency in that assay. As to `Cc1noc(C)c1-c1ncc(F)c(N(C)c2ccc3c(c2)OCCO3)n1` [Compound 29, 2-(3,5-Dimethylisoxazol-4-yl)-N-4-(3,4-ethylenedioxyphenyl)-5-fluoro-N-4-methyl-4-pyrimidineamine], the IC50 is no more than 10 µM in assay [1] and 1 to 10 µM in [2].
With `CN(c1ccc2c(c1)OCCO2)c1nc(-c2ccco2)ncc1F` [Compound 22, N4-(3,4-Ethylenedioxyphenyl)-5-fluoro-2-(2-furyl)-N-4-methyl-4-pyrimidineamine], the IC50 was no more than 10 µM in assay [3]; no more than 10 µM in [4]; no more than 1 µM in assay [1]; no more than 10 µM in [5]; no more than 10 µM in assay [6]; no more than 1 µM in assay [2].
Take `CN(c1ccc2c(c1)OCCO2)c1nc(-c2nccs2)ncc1F` [Compound 30, N4-(3,4-Ethylenedioxyphenyl)-5-fluoro-N-4-methyl-2-(thiazol-2-yl)-4-pyrimidineamine]: the IC50 in assay [1] was no more than 10 µM; in [2] it was 1 to 10 µM.
As to `Cc1cc(N(C)c2nc(Cl)ncc2F)cc(C)c1Cl` [Compound 11], the IC50 in assay [1] and in [2] was greater than 20 µM throughout.
Turning to `Cc1ccc(-c2ncc(F)c(N(C)c3ccc4c(c3)OCCO4)n2)s1` [Compound 33, N4-(3,4-Ethylenedioxyphenyl)-5-fluoro-N-4-methyl-2-(5-methyl-2-thienyl)-4-pyrimidineamine], the IC50 in [1] was no more than 10 µM; in assay [2], 1 to 10 µM.
The matching figures for `CN(c1ccc2c(c1)OCCO2)c1nc(-c2csc3ccccc23)ncc1F` [Compound 36, 2-(Benzothiophen-3-yl)-N-4-(3,4-ethylenedioxyphenyl)-5-fluoro-N-4-methyl-4-pyrimidineamine]: greater than 20 µM and greater than 20 µM.
`CN(c1ccc2c(c1)OCCO2)c1nc(-c2ccoc2)ncc1F` [Compound 26, N4-(3,4-Ethylenedioxyphenyl)-5-fluoro-2-(3-furyl)-N-4-methyl-4-pyrimidineamine]: the IC50 in assay [3], in assay [4], in [1], in assay [5], in assay [6] and in assay [2] was no more than 1 µM in each case.
Take “N4-(3,4-Ethylenedioxyphenyl)-5-fluoro-2-(3-hydroxyphenyl)-N-4-methyl-4-pyrimidineamine [Compound 19]”: the IC50 is no more than 10 µM in assay [1] and 1 to 10 µM in assay [2].
As for `CN(c1ccc2c(c1)OCCO2)c1nc(-c2cccc(N)c2)ncc1F` [Compound 23, 2-(3-Aminophenyl)-N-4-(3,4-ethylenedioxyphenyl)-5-fluoro-N-4-methyl-4-pyrimidineamine], the IC50 was no more than 10 µM in assay [3]; no more than 10 µM in assay [4]; no more than 1 µM in assay [1]; no more than 10 µM in [5]; no more than 10 µM in assay [6]; no more than 1 µM in [2].
Take `Cc1cscc1-c1ncc(F)c(N(C)c2ccc3c(c2)OCCO3)n1` [Compound 34, N4-(3,4-Ethylenedioxyphenyl)-5-fluoro-N-4-methyl-2-(4-methyl-3-thienyl)-4-pyrimidineamine]: the IC50 in assay [1] and in assay [2] was no more than 1 µM in each case.
Take `COc1c(Cl)cc(N(C)c2nc(Cl)ncc2F)cc1Cl` [Compound 5]: the IC50 in assay [1] was 1 to 10 µM; in assay [2] it was no more than 10 µM.
Take `CCCN(c1ccc(OC)c(Cl)c1)c1nc(Cl)ncc1F` [Compound 9]: the IC50 in [1] was 1 to 10 µM; in assay [2] it was no more than 10 µM.
The matching figures for `CN(c1ccc2c(c1)OCCO2)c1nc(-c2ccc(Cl)s2)ncc1F` [Compound 37, 2-(5-Chloro-2-thienyl)-N-4-(3,4-ethylenedioxyphenyl)-5-fluoro-N-4-methyl-4-pyrimidineamine]: greater than 20 µM and 10 to 20 µM.
In the case of `COc1ccc(N(C)c2nc(Cl)ncc2F)cc1Cl` [Compound 7], the IC50 in assay [1] and in assay [2] was no more than 1 µM in each case.
Turning to `CN(c1ccc2c(c1)OCCO2)c1nc(-c2ccncc2)ncc1F` [Compound 28, N4-(3,4-Ethylenedioxyphenyl)-5-fluoro-N-4-methyl-2-(pyridin-4-yl)-4-pyrimidineamine], the IC50 in assay [1] and in assay [2] was no more than 1 µM in each case.
`COc1ccc(-c2ncc(F)c(N(C)c3ccc4c(c3)OCCO4)n2)cc1OC` [Compound 20, N4-(3,4-Ethylenedioxyphenyl)-2-(3,4-dimethoxyphenyl)-5-fluoro-N-4-methyl-4-pyrimidineamine]: the IC50 in [3], in [4], in assay [1], in assay [5], in [6] and in assay [2] was greater than 20 µM throughout.
As to `COc1cc(N(C)c2nc(Cl)ncc2F)cc(OC)c1OC` [Compound 10], the IC50 in assay [1] and in assay [2] was greater than 20 µM throughout.
Turning to `CN(c1ccc2c(c1)OCCO2)c1nc(-c2cc[s+]([O-])c2)ncc1F` (stereo not drawn) [Compound 41, N4-(3,4-ethylenedioxyphenyl)-5-fluoro-N-4-methyl-2-(1-oxide-3-thienyl)-4-pyrimidineamine], the 50% inhibitory concentration (IC50) in assay [1] is no more than 10 µM; in assay [2], 1 to 10 µM.
For the compound `COc1ncc(F)c(N(C)c2ccc3c(c2)OCCO3)n1` [Compound 15], the IC50 in [1] is no more than 10 µM; in [2], 1 to 10 µM.
For `CN(c1ccc2c(c1)OCCO2)c1nc(-c2ccc[nH]2)ncc1F` [Compound 31, N4-(3,4-Ethylenedioxyphenyl)-5-fluoro-N-4-methyl-2-(1H-pyrrol-2-yl)-4-pyrimidineamine], the IC50 in assay [3], in assay [4], in assay [1], in [5], in [6] and in assay [2] was no more than 1 µM each time.
With `COc1cc(N(C)c2nc(Cl)ncc2F)ccc1Cl` [Compound 6], the IC50 in assay [1] and in assay [2] was greater than 20 µM in each case.
As to `COc1ccc(N(C)c2nc(Cl)ncc2F)cc1OC` [Compound 2], the IC50 in assay [1] and in assay [2] was no more than 1 µM each time.
Consider `CNCc1sccc1-c1ncc(F)c(N(C)c2ccc3c(c2)OCCO3)n1` [Compound 40, N4-(3,4-ethylenedioxyphenyl)-5-fluoro-N-4-methyl-2-(2-methylaminomethylenethien-3-yl)-4-pyrimidineamine], for which the values for the IC50 in assay [1] and in [2] were no more than 10 µM and 1 to 10 µM, respectively.
The matching figures for `CN(c1ccc2c(c1)OCCO2)c1nc(-c2ccsc2C=O)ncc1F` [Compound 39, N4-(3,4-ethylenedioxyphenyl)-5-fluoro-2-(2-formylthien-3-yl)-N-4-methyl-4-pyrimidineamine]: no more than 1 µM and no more than 1 µM.
The matching figures for `CN(c1ccc2c(c1)OCCO2)c1nc(-c2cccnc2)ncc1F` [Compound 27, N4-(3,4-Ethylenedioxyphenyl)-5-fluoro-N-4-methyl-2-(pyridin-3-yl)-4-pyrimidineamine]: no more than 10 µM and 1 to 10 µM.
For `CN(c1ccc2c(c1)OCCO2)c1nc(-c2ccccc2)ncc1F` [Compound 18, N4-(3,4-Ethylenedioxyphenyl)-5-fluoro-N-4-methyl-2-(phenyl)-4-pyrimidineamine], the IC50 in assay [1] and in assay [2] was no more than 1 µM throughout.
As to `CN(c1ccc2c(c1)OCCO2)c1nc(-c2ccc3c(c2)OCO3)ncc1F` [Compound 21, N4-(3,4-Ethylenedioxyphenyl)-5-fluoro-N-4-methyl-2-(3,4-methylenedioxyphenyl)-4-pyrimidineamine], the IC50 in assay [3] was no more than 20 µM; in assay [4], no more than 20 µM; in assay [1], no more than 10 µM; in assay [5] it was no more than 20 µM; in assay [6], no more than 20 µM; in [2], 1 to 10 µM.
On to `CN(c1ccc2c(c1)OCCO2)c1nc(-c2cc3ccccc3s2)ncc1F` [Compound 35, 2-(Benzothiophen-2-yl)-N-4-(3,4-ethylenedioxyphenyl)-5-fluoro-N-4-methyl-4-pyrimidineamine], for which the IC50 in assay [1] and in [2] was greater than 20 µM each time.
With `COc1cc(OC)cc(N(C)c2nc(Cl)ncc2F)c1` [Compound 12], the IC50 in [1] and in [2] was greater than 20 µM in each case.
`CN(c1ccc2c(c1)OCCO2)c1nc(Cl)ncc1F` [Compound 1, 2-chloro-N-4-(3,4-ethylenedioxyphenyl)-5-fluoro-N-4-methyl-4-pyrimidineamine]: the IC50 with SKMEL28 (human melanoma) was less than 1 µM; in the assay with SKMEL5 (human melanoma), less than 1 µM; in [7] it was less than 1 µM; in assay [4], no more than 1 µM; in [1], no more than 1 µM; in assay [5], no more than 1 µM. The IC50 in [8] was less than 1 µM; in assay [9], less than 1 µM; in assay [6] it was no more than 1 µM; in assay [10], less than 1 µM; in [2], no more than 1 µM.
